In one data set the target is T1, Chs1 (chitin synthase 1) (Saccharomyces cerevisiae, UniProt P08004).
T1 construct: Chs1 (1131 residues) with C-terminal triple-FLAG; N-terminal ~374 residues largely disordered; homodimer
T1 sequence (P08004 1-1131): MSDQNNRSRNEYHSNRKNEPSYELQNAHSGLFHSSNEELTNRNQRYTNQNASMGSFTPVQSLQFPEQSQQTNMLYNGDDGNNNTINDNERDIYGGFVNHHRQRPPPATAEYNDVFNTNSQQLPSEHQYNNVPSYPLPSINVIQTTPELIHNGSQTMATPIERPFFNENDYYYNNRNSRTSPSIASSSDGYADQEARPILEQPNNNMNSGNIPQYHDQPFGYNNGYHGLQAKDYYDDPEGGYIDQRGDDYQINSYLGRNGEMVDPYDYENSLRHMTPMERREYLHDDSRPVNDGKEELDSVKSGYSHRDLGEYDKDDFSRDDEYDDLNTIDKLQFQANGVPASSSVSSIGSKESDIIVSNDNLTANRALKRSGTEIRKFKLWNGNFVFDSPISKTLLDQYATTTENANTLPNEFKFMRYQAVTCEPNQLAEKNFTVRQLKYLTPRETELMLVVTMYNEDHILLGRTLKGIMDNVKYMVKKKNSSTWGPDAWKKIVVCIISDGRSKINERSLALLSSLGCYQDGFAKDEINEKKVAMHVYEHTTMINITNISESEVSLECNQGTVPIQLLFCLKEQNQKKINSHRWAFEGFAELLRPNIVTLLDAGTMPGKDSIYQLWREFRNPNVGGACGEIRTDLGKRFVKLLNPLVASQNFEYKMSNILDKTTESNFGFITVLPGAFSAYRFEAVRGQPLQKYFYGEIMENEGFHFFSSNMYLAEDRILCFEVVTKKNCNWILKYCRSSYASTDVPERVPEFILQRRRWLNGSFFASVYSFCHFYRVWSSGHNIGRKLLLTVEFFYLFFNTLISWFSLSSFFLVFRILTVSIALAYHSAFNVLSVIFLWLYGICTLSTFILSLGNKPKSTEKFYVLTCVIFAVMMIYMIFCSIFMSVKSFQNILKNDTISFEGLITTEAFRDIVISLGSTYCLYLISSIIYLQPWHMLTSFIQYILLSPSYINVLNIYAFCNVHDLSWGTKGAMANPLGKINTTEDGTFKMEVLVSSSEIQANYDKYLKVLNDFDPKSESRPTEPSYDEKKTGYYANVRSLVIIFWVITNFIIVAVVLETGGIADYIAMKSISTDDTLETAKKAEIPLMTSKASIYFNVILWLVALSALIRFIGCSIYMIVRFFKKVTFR
As to the kind of experiment: cryo-EM structure at […] Å with UDP-GlcNAc (also with UDP, 8K3U). The data set is classed as binding.

Data set [1] concerns the molecule itself. In words: cryo-EM structure; single-particle cryo-EM of purified Chs1 (~3 mg/mL) in LMNG/GDN/CHS, alone or with 5 mM UDP-GlcNAc, GlcNAc, UDP, Nikkomycin Z or Polyoxin B on ice; maps refined with C2 symmetry.

The source of these data is PMC10409773, “Structure, catalysis, chitin transport, and selective inhibition of chitin synthase” (Nature Communications, 2023).

For `CC(=O)N[C@H]1C(O)O[C@H](CO)[C@@H](O)[C@@H]1O` (some centres unmarked) [GlcNAc], the “cryo-EM structure at 2.9 Å with UDP-GlcNAc (also with UDP, 8K3U)” value on Chs1 (chitin synthase 1) is “The GlcNAc ring is vertically inserted into a slit between the indole ring of W760 and the pyrrolidine ring”.

B1: Saccharomyces cerevisiae chitin synthase 1 (Chs1), wild type, C-terminal triple FLAG (enzyme, S. cerevisiae)
chain: T1 sequence (P08004 1-1131)
notes: Chitin synthase 1 (Chs1), S. cerevisiae, UniProt P08004; the first 374 residues (except 245-271) are not seen in the maps; the purified sample was partly digested in the N-terminal region by endogenous protease (a smaller species lacks about the N-terminal 150 residues); also called ScChs1; scChs1
The term stoichiometry N denotes a count of units in the complex or per binding partner. Turning to B1, the “stoichiometry N” value in data set [1] was found to be 2.
